Results: patent publication US6777422B2, “Substituted tetrahydroisoquinolines as C5a receptor modulators” (Neurogen Corp., priority 2002, dated 2004)

What follows are compounds tested against T1, human C5a receptor (Homo sapiens, UniProt P21730) (assay: C5a receptor mediated calcium mobilization assay (Example 20)). Settings: differentiated U937 cells, read-out: Ca2+ (Ki in the standard assay of C5a receptor mediated calcium mobilization).
T1 construct: endogenous in cells; host or cells: U937 cells differentiated with 1 mM dibutyryl cAMP
T1 sequence (P21730 1-350): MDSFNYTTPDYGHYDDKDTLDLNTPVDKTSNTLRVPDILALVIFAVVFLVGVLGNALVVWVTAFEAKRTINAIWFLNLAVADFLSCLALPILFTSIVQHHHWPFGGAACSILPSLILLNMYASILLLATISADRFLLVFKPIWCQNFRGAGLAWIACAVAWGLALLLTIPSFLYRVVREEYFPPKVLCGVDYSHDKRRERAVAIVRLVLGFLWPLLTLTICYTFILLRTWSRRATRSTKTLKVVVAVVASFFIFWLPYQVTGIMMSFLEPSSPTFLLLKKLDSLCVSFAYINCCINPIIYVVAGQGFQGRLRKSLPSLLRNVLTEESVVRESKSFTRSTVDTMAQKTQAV
Assay type: cell-based
Procedure: Calcium Mobilization Assays
U937 cells are grown in differentiation media (1 mM dibutyryl cAMP in RPMI 1640 medium containing 10% fetal bovine serum) for 48 hrs at 37° C. then reseeded onto 96-well plates suitable for use in a FLIPR™ Plate Reader (Molecular Devices Corp., Sunnyvale Calif.). Cells are grown an additional 24 hours (to 70-90% confluence) before the assay. The cells are then washed once with Krebs Ringer solution. FLUO-3 calcium sensitive dye (Molecular Probes, Inc. Eugene, Oreg.) is added to 10 μg/mL and incubated with the cells at room temperature for 1 to 2 hours. The 96 well plates are then washed to remove excess dye. Fluorescence responses, measured by excitation at 480 nm and emission at 530 nm, are monitored upon the addition of human C5a to the cells to a final concentration of 0.01-30.0 nM, using the FLIPR™ device (Molecular Devices).
C. Assays for the Identification of Receptor Modulatory Agents: Antagonists and Agonists
The calcium mobilization assay described above may be readily adapted for identifying test compounds that have agonist or antagonist activity at the human C5a receptor.
For example, in order to identify antagonist compounds, differentiated U937 cells are washed and incubated with Fluo-3 dye as described above. One hour prior to measuring the fluorescence signal, a subset of the cells is incubated with 1 μM of at least one compound to be tested. The fluorescence response upon the subsequent addition of 0.3 nM (final concentration) human recombinant C5a is monitored using the FLIPR™ plate reader. Antagonist compounds elicit at least a 2-fold decrease in the fluorescence response relative to that measured in the presence of human C5a alone. Preferred antagonist compounds elicit at least a 5-fold, preferably at least a 10-fold, and more preferably at least a 20-fold decrease in the fluorescence response relative to that measured in the presence of human C5a alone.

Ki, < 1000 nM:
O=C(CN1CCc2ccccc2[C@H]1c1ccccc1Br)N(Cc1ccccc1F)C1Cc2ccccc2C1 [Compound 40, 2-[(1S)-1-(2-bromophenyl)-3,4-dihydroisoquinolin-2(1H)-yl]-N-(indan-2-yl)-N-(2-fluorobenzyl)acetamide]
O=C(CN1CCc2ccccc2[C@H]1c1ccccc1C(F)(F)F)N(Cc1ccccc1F)C1Cc2ccccc2C1 [Compound 41, N-(indan-2-yl)-N-(2-fluorobenzyl)-2-[(1S)-1-[2-(trifluoromethyl)phenyl]-3,4-dihydroisoquinolin-2(1H)-yl]acetamide]
Cc1ccccc1[C@@H]1c2ccccc2CCN1[C@@H](C)C(=O)N(Cc1ccccc1F)C1Cc2ccccc2C1 [Compound 42, (2S)-N-(indan-2-yl)-N-(2-fluorobenzyl)-2-[(1R)-1-(2-methylphenyl)-3,4-dihydroisoquinolin-2(1H)-yl]propanamide]
O=C(CN1CCc2ccccc2C1c1ccccc1-c1ccccc1)N(Cc1ccccc1F)C1Cc2ccccc2C1 (stereo not shown) [Compound 43, 2-[1-(1,1′-biphenyl-2-yl)-3,4-dihydroisoquinolin-2(1H)-yl]-N-(indan-2-yl)-N-(2-fluorobenzyl)acetamide]
O=C(CN1CCc2ccccc2C1c1cccc2ccccc12)N(Cc1ccccc1F)C1Cc2ccccc2C1 (stereo not shown) [Compound 44, N-(indan-2-yl)-N-(2-fluorobenzyl)-2-[1-(1-naphthyl)-3,4-dihydroisoquinolin-2(1H)-yl]acetamide]
O=C(CN1CCc2ccccc2C12CCc1ccccc12)N(Cc1ccccc1F)C1Cc2ccccc2C1 (stereo not shown) [Compound 45]
Cc1cccc(C2c3ccccc3CCN2CC(=O)N(Cc2ccccc2F)C2Cc3ccccc3C2)c1Cl (stereo not shown) [Compound 47, 2-[1-(2-chloro-3-methylphenyl)-3,4-dihydroisoquinolin-2(1H)-yl]-N-(indan-2-yl)-N-(2-fluorobenzyl)acetamide]
Cc1c(F)cccc1C1c2ccccc2CCN1CC(=O)N(Cc1ccccc1F)C1Cc2ccccc2C1 (stereo not shown) [Compound 48, N-(indan-2-yl)-N-(2-fluorobenzyl)-2-[1-(3-fluoro-2-methylphenyl)-3,4-dihydroisoquinolin-2(1H)-yl]acetamide]
O=C(CN1CCc2ccccc2C1c1cccc(C(F)(F)F)c1)N(Cc1ccccc1F)C1Cc2ccccc2C1 (stereo not shown) [Compound 50, N-(indan-2-yl)-N-(2-fluorobenzyl)-2-[1-[3-(trifluoromethyl)phenyl]-3,4-dihydroisoquinolin-2(1H)-yl]acetamide]
O=C(CN1CCc2ccccc2C1c1cccc2c1OCC2)N(Cc1ccccc1F)C1Cc2ccccc2C1 (stereo not shown) [Compound 53, 2-[1-(2,3-dihydro-1-benzofuran-7-yl)-3,4-dihydroisoquinolin-2(1H)-yl]-N-(indan-2-yl)-N-(2-fluorobenzyl)acetamide]
C[C@H]1CN(CC(=O)N(Cc2ccccc2F)C2Cc3ccccc3C2)[C@@H](c2ccccc2F)c2ccccc21 [Compound 54, N(indan-2-yl)-N-(2-fluorobenzyl)-2-[(1R,4R)-1-(2-fluorophenyl)-4-methyl-3,4-dihydroisoquinolin-2(1H)-yl]acetamide]
Cc1cccc(C)c1C1c2ccccc2CCN1CC(=O)N(Cc1ccccc1F)C1Cc2ccccc2C1 (stereo not shown) [Compound 56, N-(indan-2-yl)-2-[1-(2,6-dimethylphenyl)-3,4-dihydroisoquinolin-2(1H)-yl]-N-(2-fluorobenzyl)acetamide]
Cc1ccc(F)cc1C1c2ccccc2CCN1CC(=O)N(Cc1ccccc1F)C1Cc2ccccc2C1 (stereo not shown) [Compound 57, N-(indan-2-yl)-N-(2-fluorobenzyl)-2-[1-(5-fluoro-2-methylphenyl)-3,4-dihydroisoquinolin-2(1H)-yl]acetamide]
O=C(CN1CCc2ccccc2[C@@H]1c1ccccc1F)N(Cc1ccccc1F)C1Cc2ccccc2C1 [Compound 58, N-(indan-2-yl)-N-(2-fluorobenzyl)-2-[(1R)-1-(2-fluorophenyl)-3,4-dihydroisoquinolin-2(1H)-yl]acetamide]
C[C@H]1CN(CC(=O)N(Cc2ccccc2F)C2Cc3ccccc3C2)[C@@H](c2ccccc2Cl)c2ccccc21 [Compound 59, 2-[(1R,4R)-1-(2-chlorophenyl)-4-methyl-3,4-dihydroisoquinolin-2(1H)-yl]-N-(indan-2-yl)-N-(2-fluorobenzyl)acetamide]
C[C@@H](C(=O)N(Cc1ccccc1F)C1Cc2ccccc2C1)N1CCc2ccccc2[C@@H]1c1ccccc1F [Compound 60, (2S)-N-(indan-2-yl)-N-(2-fluorobenzyl)-2-[(1R)-1-(2-fluorophenyl)-3,4-dihydroisoquinolin-2(1H)-yl]propanamide]
Cc1ccc(C2c3ccccc3CCN2CC(=O)N(Cc2ccccc2F)C2Cc3ccccc3C2)cc1F (stereo not shown) [Compound 61, N-(indan-2-yl)-N-(2-fluorobenzyl)-2-[1-(3-fluoro-4-methylphenyl)-3,4-dihydroisoquinolin-2(1H)-yl]acetamide]
O=C(CN1CCc2ccccc2C1c1cccc2cccnc12)N(Cc1ccccc1F)C1Cc2ccccc2C1 (stereo not shown) [Compound 62, N-(indan-2-yl)-N-(2-fluorobenzyl)-2-(1-quinolin-8-yl-3,4-dihydroisoquinolin-2(1H)-yl)acetamide]
C[C@@H](C(=O)N(Cc1ccccc1F)C1Cc2ccccc2C1)N1CCc2ccccc2[C@@H]1c1cccc2ccccc12 [Compound 63, (2S)-N-(indan-2-yl)-N-(2-fluorobenzyl)-2-[(1R)-1-(1-naphthyl)-3,4-dihydroisoquinolin-2(1H)-yl]propanamide]
C[C@@H](C(=O)N(Cc1ccccc1F)C1Cc2ccccc2C1)N1CCc2ccccc2[C@@H]1c1ccccc1Cl [Compound 64, (2S)-2-[(1R)-1-(2-chlorophenyl)-3,4-dihydroisoquinolin-2(1H)-yl]-N-(indan-2-yl)-N-(2-fluorobenzyl)propanamide]
Cc1c(Cl)cccc1C1c2ccccc2CCN1CC(=O)N(Cc1ccccc1F)C1Cc2ccccc2C1 (stereo not shown) [Compound 65, 2-[1-(3-chloro-2-methylphenyl)-3,4-dihydroisoquinolin-2(1H)-yl]-N-(indan-2-yl)-N-(2-fluorobenzyl)acetamide]
Cc1ccc(F)c(C2c3ccccc3CCN2CC(=O)N(Cc2ccccc2F)C2Cc3ccccc3C2)c1 (stereo not shown) [Compound 66, N-(indan-2-yl)-N-(2-fluorobenzyl)-2-[1-(2-fluoro-5-methylphenyl)-3,4-dihydroisoquinolin-2(1H)-yl]acetamide]
Cc1cccc([C@H]2c3ccccc3CCN2[C@@H](C)C(=O)N(Cc2ccccc2F)C2Cc3ccccc3C2)c1C [Compound 67, (2S)-N-(indan-2-yl)-2-[(1R)-1-(2,3-dimethylphenyl)-3,4-dihydroisoquinolin-2(1H)-yl]-N-(2-fluorobenzyl)propanamide]
Cc1cccc([C@@H]2c3ccccc3CCN2[C@@H](C)C(=O)N(Cc2ccccc2F)C2Cc3ccccc3C2)c1C [Compound 68, (2S)-N-(indan-2-yl)-2-[(1S)-1-(2,3-dimethylphenyl)-3,4-dihydroisoquinolin-2(1H)-yl]-N-(2-fluorobenzyl)propanamide]
C[C@@H](C(=O)N(Cc1ccccc1F)C1Cc2ccccc2C1)N1CCc2ccccc2[C@@H]1c1ccccc1C(F)(F)F [Compound 69, (2S)-N-(indan-2-yl)-N-(2-fluorobenzyl)-2-[(1R)-1-[2-(trifluoromethyl)phenyl]-3,4-dihydroisoquinolin-2(1H)-yl]propanamide]
C[C@@H](C(=O)N(Cc1ccccc1F)C1Cc2ccccc2C1)N1CCc2ccccc2[C@@H]1c1ccccc1Br [Compound 70, (2S)-2-[(1R)-1-(2-bromophenyl)-3,4-dihydroisoquinolin-2(1H)-yl]-N-(indan-2-yl)-N-(2-fluorobenzyl)propanamide]
Cc1cccc(C)c1[C@H]1c2ccccc2CCN1[C@@H](C)C(=O)N(Cc1ccccc1F)C1Cc2ccccc2C1 [Compound 71, (2S)-N-(indan-2-yl)-2-[(1R)-1-(2,6-dimethylphenyl)-3,4-dihydroisoquinolin-2(1H)-yl]-N-(2-fluorobenzyl)propanamide]
O=C(CN1CCc2ccccc2C1c1cccc(F)c1F)N(Cc1ccccc1F)C1Cc2ccccc2C1 (stereo not shown) [Compound 74, 2-[1-(2,3-difluorophenyl)-3,4-dihydroisoquinolin-2(1H)-yl]-N-(indan-2-yl)-N-(2-fluorobenzyl)acetamide]
